Some test systems named below: SNB-75; SN12C; M14; NCI/ADR-RES; EKVX; SK-OV-3; HL-60; BT-549; HCT-15; MDA-N; U-251; CCRF-CEM; 786-0; NCI-H460; TK-10; SK-MEL-2; PC-3; OVCAR-3; HCC 2998.
Holding throughout (assay): NCI anticancer screen, dose series, 48 h

Each structure is given as a SMILES string.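 1) Cells in 96-well plates. 2) Compound, 48 h, 5 concentrations. 3) Linear interpolation between surrounding doses. 4) Unreached endpoint = highest concentration. GI50 is the concentration that inhibits growth by half.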 The source made the active and inactive calls. No stated cut-off is given here; in the data, active = GI50 up to about 1.1 µM and inactive = higher.

Regarding `CC(C)=CCC1=C(OCC(=O)O)C(=O)c2ccccc2C1=O`, the GI50 was 24.4 µM (inactive) in the assay on SNB-75; 24.5 µM (inactive) in the assay with SN12C; 33 µM (inactive) in the assay on M14; 32.1 µM (inactive) in the assay with NCI/ADR-RES; 37.1 µM (inactive) in the assay with EKVX; 67.9 µM (inactive) with SK-OV-3. Further, the GI50 was 14.5 µM (inactive) with HL-60; 29.9 µM (inactive) in the assay with BT-549; 39.4 µM in the assay with HCT-15; 17.9 µM (inactive) in the assay with MDA-N; 30.3 µM (inactive) in the assay with U-251; 23.9 µM (inactive) in the assay on CCRF-CEM. Also, the GI50 is 41.1 µM (inactive) in the assay on 786-0; 34.5 µM (inactive) in the assay with NCI-H460; > 100 µM (inactive) with TK-10; 25.7 µM (inactive) with SK-MEL-2; 31.3 µM (inactive) with PC-3.
`Cc1cc(-c2ccc(C(=O)C(Cl)(Cl)Cl)[nH]2)on1`: the GI50 with SNB-75 is 31.3 µM (inactive); in the assay on SN12C, 16.4 µM (inactive); in the assay with M14 it was 35.5 µM (inactive); with NCI/ADR-RES, 29.3 µM (inactive); in the assay with OVCAR-3, 25.1 µM (inactive); with EKVX, 35.1 µM (inactive). Moreover, the GI50 in the assay with SK-OV-3 was 60 µM (inactive); in the assay with HL-60, 21.1 µM (inactive); with BT-549, 33.3 µM (inactive); in the assay on HCT-15 it was 28 µM; in the assay on MDA-N it was 34.2 µM (inactive); in the assay on U-251, 15.4 µM (inactive). Moreover, the GI50 in the assay with CCRF-CEM was 27.2 µM (inactive); in the assay with 786-0 it was 37 µM (inactive); in the assay on NCI-H460, 10.2 µM (inactive); in the assay on TK-10, 27.4 µM (inactive); in the assay with SK-MEL-2, 23.9 µM (inactive); with PC-3 it was 29.9 µM (inactive).
For the compound `O=c1[nH]cnc2c1sc1nc3ccccc3n12`, the GI50 with SNB-75 is 49.3 µM (inactive); in the assay with HCC 2998, 73.3 µM (inactive); in the assay on M14, > 100 µM (inactive); in the assay on NCI/ADR-RES, > 100 µM (inactive); with OVCAR-3, > 100 µM (inactive); in the assay on EKVX, > 100 µM (inactive). Besides, the GI50 was 58.1 µM (inactive) in the assay on SK-OV-3; > 100 µM (inactive) with BT-549; 80.9 µM in the assay on HCT-15; > 100 µM (inactive) in the assay on MDA-N; > 100 µM (inactive) in the assay on U-251; 55.6 µM (inactive) with CCRF-CEM. In addition, the GI50 in the assay on 786-0 was 67.5 µM (inactive); with TK-10 it was 70 µM (inactive); with SK-MEL-2, 55.8 µM (inactive); with PC-3, 88.5 µM (inactive).
In the case of `O=[N+]([O-])c1ccc(-c2nc3cc(Cl)ccc3[nH]2)cc1`, the GI50 is 73.5 µM (inactive) in the assay on SNB-75; 43.6 µM (inactive) in the assay with SN12C; 60.7 µM (inactive) in the assay on M14; 31.3 µM (inactive) in the assay on NCI/ADR-RES; 45.1 µM (inactive) in the assay on OVCAR-3; 69.5 µM (inactive) in the assay with EKVX. Besides, the GI50 with SK-OV-3 was > 100 µM (inactive); with BT-549, 99.1 µM (inactive); in the assay on HCT-15, 52 µM; in the assay on MDA-N, 39.7 µM (inactive); in the assay on 786-0, 86.7 µM (inactive); in the assay on NCI-H460, 37.2 µM (inactive). Besides, the figures for the GI50 in the assay with TK-10 and in the assay with PC-3 were > 100 µM (inactive) and 32.7 µM (inactive), respectively.
Regarding `COc1nc2ncc([C@@H](OC(C)=O)[C@@H](COC(C)=O)OC(C)=O)nc2c(=O)n1C`, the GI50 in the assay with SNB-75, with SN12C, in the assay with M14, with NCI/ADR-RES, with OVCAR-3 and in the assay on EKVX was > 100 µM (inactive) throughout. Also, the GI50 in the assay on SK-OV-3 was > 100 µM (inactive); in the assay with HL-60, 24.3 µM (inactive); with BT-549, > 100 µM (inactive); in the assay on HCT-15 it was over 100 µM; with MDA-N it was > 100 µM (inactive); with U-251, > 100 µM (inactive). Moreover, the GI50 with CCRF-CEM was 58.1 µM (inactive); in the assay on 786-0, > 100 µM (inactive); in the assay on NCI-H460, > 100 µM (inactive); in the assay with TK-10, > 100 µM (inactive); in the assay with SK-MEL-2, > 100 µM (inactive); in the assay on PC-3 it was > 100 µM (inactive).
Take `c1ccc(/N=C2\C(=N/c3ccccc3)N(C3CCCCC3)/C(=N\C3CCCCC3)N2c2ccccc2)cc1`: the GI50 in the assay on SNB-75 is > 100 µM (inactive); in the assay with HCC 2998, > 100 µM (inactive); in the assay on SN12C, > 10 µM (inactive); in the assay with M14 it was > 100 µM (inactive); with EKVX, > 100 µM (inactive); in the assay with HL-60, > 100 µM (inactive). The GI50 in the assay with BT-549 was > 100 µM (inactive); in the assay with HCT-15 it was over 100 µM; in the assay with MDA-N, > 100 µM (inactive); in the assay on U-251, > 100 µM (inactive); with 786-0, > 100 µM (inactive); in the assay with NCI-H460 it was > 100 µM (inactive). Also, the GI50 with TK-10, with SK-MEL-2 and with PC-3 was > 100 µM (inactive) throughout.
With `COC(=O)C1c2c(c3ccccc3n2C(=O)OC)CCN2CCC1C(S(=O)(=O)c1ccccc1)C2=O` (configuration not stated), the GI50 in the assay on SNB-75, with SN12C, in the assay with M14, in the assay on NCI/ADR-RES, in the assay on OVCAR-3 and in the assay on EKVX was > 100 µM (inactive) throughout. The GI50 is > 100 µM (inactive) in the assay with SK-OV-3; 90.6 µM (inactive) in the assay on HL-60; > 100 µM (inactive) in the assay on BT-549; over 100 µM in the assay on HCT-15; > 100 µM (inactive) in the assay with MDA-N; > 100 µM (inactive) in the assay on U-251. Further, the GI50 in the assay on CCRF-CEM, in the assay with 786-0, in the assay on NCI-H460, in the assay with TK-10, with SK-MEL-2 and with PC-3 was > 100 µM (inactive) throughout.
In the case of `COC(=O)/C=C1\SC2(O\C1=N/c1ccccc1)C1CC3CC(C1)CC2C3` (configuration not stated), the GI50 in the assay on SNB-75, in the assay on SN12C, in the assay with NCI/ADR-RES, with OVCAR-3, in the assay with EKVX and with SK-OV-3 was > 100 µM (inactive) each time. Further, the GI50 in the assay on HL-60 is > 100 µM (inactive); in the assay on BT-549, > 100 µM (inactive); in the assay on HCT-15, over 100 µM; with MDA-N, > 100 µM (inactive); with U-251 it was > 100 µM (inactive); in the assay on CCRF-CEM, > 100 µM (inactive). Besides, the GI50 in the assay on NCI-H460, in the assay on TK-10, with SK-MEL-2 and in the assay with PC-3 was > 100 µM (inactive) each time.
Consider `NNC1=N/C(=C\c2ccccc2O)C(=O)N1`, for which the GI50 is > 100 µM (inactive) in the assay on SNB-75; 40.7 µM (inactive) in the assay on SN12C; 27.2 µM (inactive) with M14; 35.8 µM (inactive) with NCI/ADR-RES; 35.1 µM (inactive) in the assay with OVCAR-3; 50.5 µM (inactive) in the assay on EKVX. In addition, the GI50 with SK-OV-3 was 31.7 µM (inactive); in the assay with HL-60 it was 14.6 µM (inactive); with BT-549, 37.9 µM (inactive); with HCT-15 it was 6.31 µM; in the assay on MDA-N, 42.2 µM (inactive); in the assay with U-251, 33.3 µM (inactive). Also, the GI50 in the assay on CCRF-CEM was 9.12 µM (inactive); in the assay with 786-0, 20.7 µM (inactive); in the assay on NCI-H460 it was 20.2 µM (inactive); in the assay on TK-10 it was 60.1 µM (inactive); in the assay on SK-MEL-2, 63.8 µM (inactive); with PC-3 it was 49.2 µM (inactive).
As for `COc1cc(C(=O)Nc2cc(C(N)=O)cc(OC)c2OC)cc(NC(=O)/C=C/c2ccccc2)c1OC`, the GI50 with SNB-75 was 1.71 µM (inactive); with SN12C it was 18.6 µM (inactive); in the assay with NCI/ADR-RES, > 100 µM (inactive); in the assay on OVCAR-3, 3.68 µM (inactive); in the assay with EKVX, > 100 µM (inactive); in the assay with SK-OV-3, > 100 µM (inactive). Moreover, the GI50 is 96.4 µM (inactive) in the assay with HL-60; > 100 µM (inactive) in the assay with BT-549; over 100 µM with HCT-15; > 100 µM (inactive) in the assay on MDA-N; 55.5 µM (inactive) with CCRF-CEM; 66.4 µM (inactive) in the assay with NCI-H460. Besides, the GI50 in the assay on TK-10 and in the assay with PC-3 was > 100 µM (inactive) each time.
Regarding `COC(=O)C(Cc1cn(C(C)n2cc(CC(NC(C)=O)C(=O)OC)c3ccccc32)c2ccccc12)NC(C)=O` (configuration not stated), the GI50 in the assay on SNB-75 was 0.116 µM (active); in the assay on HCC 2998, > 100 µM (inactive); in the assay with SN12C, > 100 µM (inactive); with M14, > 100 µM (inactive); in the assay on OVCAR-3, > 100 µM (inactive); in the assay on EKVX, 25.5 µM (inactive). Moreover, the GI50 in the assay on SK-OV-3 was > 100 µM (inactive); in the assay on BT-549 it was > 100 µM (inactive); in the assay on HCT-15 it was over 100 µM; in the assay on MDA-N, > 100 µM (inactive); in the assay on U-251, > 100 µM (inactive); in the assay on CCRF-CEM, 42.5 µM (inactive). Also, the GI50 in the assay with NCI-H460 was 63.2 µM (inactive); with TK-10, > 100 µM (inactive); in the assay on SK-MEL-2, > 100 µM (inactive); in the assay with PC-3, > 100 µM (inactive).
Consider `CCCCc1ccc(Nc2nc(N)c3ncn(COCCO)c3n2)cc1`, for which the GI50 is 32.6 µM (inactive) in the assay on SNB-75; 27.2 µM (inactive) in the assay on HCC 2998; 33 µM (inactive) with SN12C; 20.6 µM (inactive) in the assay with M14; 20.9 µM (inactive) in the assay on NCI/ADR-RES; 16.6 µM (inactive) in the assay on OVCAR-3. In addition, the GI50 in the assay with EKVX was 41.4 µM (inactive); with SK-OV-3, 11.2 µM (inactive); in the assay on HL-60, 36.3 µM (inactive); with BT-549, 25.5 µM (inactive); in the assay with HCT-15, 19.3 µM; in the assay with MDA-N it was 37.2 µM (inactive). Also, the GI50 with U-251 is 22.1 µM (inactive); in the assay with CCRF-CEM, 26.4 µM (inactive); in the assay with 786-0 it was 25.5 µM (inactive); with TK-10, 52.6 µM (inactive); in the assay on SK-MEL-2, 17 µM (inactive).

These data come from ChEMBL document CHEMBL1201862, “PubChem BioAssay data set” (2004).
